# Laboratory results: article PMC10818931, “In Vitro Evaluation of Drug–Drug Interaction Potential of Epetraborole, a Novel Bacterial Leucyl-tRNA Synthetase Inhibitor” (Pharmaceuticals, 2024)
# pIC50: −log10 of the molar value. Like-named read-outs stand apart in the source and are kept apart here.
# Tests used:
# [1] = Apparent permeability through Caco-2 cell monolayers; details: human, Caco-2
# Protocol: (§1) ^14C-EBO permeability in Caco-2 Cells (MDR1/Protein Glycoprotein or P-gp) was determined using methodologies described previously. The apparent permeability of ^14C-EBO was determined in both the apical to basolateral and the basolateral to apical directions, in triplicate, at final concentrations of 1, 10, and 100 μM. Cell monolayers were incubated with ^14C-EBO at 37 °C for 1, 2, 3, and 4 h. The transepithelial electrical resistance (TEER) values of the monolayers prior to and following each experiment were measured to confirm the integrity of the Caco-2 cell monolayers. The apparent permeability of ^14C-EBO (at a final concentration of 10 μM) was determined in both the apical to basolateral and basolateral to apical directions under the same conditions as previously described in the presence of P-gp inhibitors cyclosporine A (10 μM) and verapamil (100 μM) in the donor compartment.
# Caco-2 cell monolayers = assay: as above; details: in vitro
# Protocol: as §1
# P-gp [2] = target: T1, P-gp (Homo sapiens, UniProt P08183); assay: Caco-2 efflux ratio without/with P-gp inhibitor (P-gp substrate); format: in vitro ADME; set-up: host or cells: Caco-2; details: for efflux ratio: Caco-2, 1, 10, 100 µM, 1–4 h
# Protocol: as §1
# CYP2C19 = target: T2, CYP2C19 (Homo sapiens, UniProt P33261); assay: CYP inhibition (direct and metabolism-dependent) in human hepatic microsomes; format: in vitro ADME
# T2 construct: tissue CellzDirect; XenoTech LLC; host or cells: pooled human liver microsomes
# Protocol: (§2) The direct inhibitory potential of EBO on cytochrome P450 activities O-deethylase (CYP1A2), bupropion hydroxylase (CYP2B6), amodiaquine N-deethylase (CYP2C8), diclofenac 4′-hydroxylase (CYP2C9), S-mephenytoin 4′-hydroxylase (CYP2C19), bufuralol 1′-hydroxylase (CYP2D6), chlorzoxazone 6-hydroxylase (CYP2E1), testosterone 6β-hydroxylase (CYP3A), and midazolam 1′-hydroxylase (CYP3A) was assessed in vitro using human hepatic microsomes according to Covance Laboratory (Madison, WI, USA) SOP. A single substrate concentration was used, approximating the concentration of substrate that gives half the maximum reaction velocity (Km) for human hepatic microsomes for each cytochrome P450 activity. […] All sample and control incubations were performed in triplicate and were analyzed by LC-MS/MS. Incubation mixtures contained microsomal protein and substrate in a 0.1 M potassium phosphate buffer (pH 7.4) containing 1 mM EDTA (assay buffer). […] Incubations were terminated by the addition of 100 µL of an internal standard solution followed by vortex mixing. Protein was removed by centrifugation at 1500× g for 5 min at 4 °C, and supernatants were transferred to a separate plate and stored at 4 °C prior to LC-MS/MS analysis. The analyte for each activity assay was quantitated by comparison to a linear curve of an authentic standard prepared using human microsomal protein. […] Incubations were performed at substrate concentrations approximating the average Km values. […] For determination of control activities, NADPH was added after the addition of each substrate. Samples were then processed as previously described.
# CYP2B6 = assay: as above; format: in vitro ADME
# Protocol: as §2
# CYP2E1 = target: T3, CYP2E1 (Homo sapiens, UniProt P05181); assay: as above; format: in vitro ADME
# T3 construct: Characterized, pooled, human hepatic microsomes from 15 individuals; tissue CellzDirect (Durham, NC, USA) or XenoTech LLC (Lenexa, KS, USA); host or cells: pooled human liver microsomes (15 donors)
# Protocol: as §2
# major CYP enzymes = assay: Stability studies (CYP substrate potential, hepatic microsomes); format: in vitro ADME
# P-gp [3] = target: T1, P-gp; assay: Inhibition of P-gp digoxin efflux transport in MDR1-MDCK cells
# Protocol: A preincubation with EBO or known inhibitor was performed on both sides to preload the cells. After 30 min, the preincubation solution was aspirated. Aliquots of fresh dosing solution with or without EBO or known inhibitor (0.55 mL for AP-to-BL, 1.55 mL for BL-to-AP) were added to the donor compartment, and HBSSg_7.4 with or without EBO or known inhibitor (1.5 mL for AP-to-BL, 0.5 mL for BL-to-AP) were added to the receiver compartment. Receiver samples (200 µL) and donor samples (50 µL) were taken at preselected time points.
# Cell monolayer integrity was examined using lucifer yellow (excitation 450 nm and emission 538 nm). The concentrations of the probe substrate in the donor and receiver samples, as well as EBO in dosing solutions, were determined by LC-MS/MS.
# CYP3A4 = assay: Automated time-dependent inhibition assay in HLM; format: in vitro ADME, human; details: EBO 30 and 50 µM, 30 min preincubation with NADPH
# Protocol: (§3) The effect of EBO (30 and 50 µM) on time-dependent inhibition of CYP3A4 (testosterone and midazolam substrate) and CYP2D6 ([…] substrate) was determined using methodologies described previously. The Genesis robot (Tecan, Reading, UK) running Gemini software (https://www.tecan.com) was used to perform a fully automated TDI assay. The assay ran a preincubation (30 min at 37 °C, 1 mg/mL HLM incubation containing 1 mM NADPH and EBO) and a secondary incubation (containing 50 µL aliquot from the preincubation, 1 mM NADPH, and substrates for CYP3A4 and CYP2D6). At the end of the secondary incubation (15 min at 37 °C), an aliquot (50 µL) was removed and added to 100 µL of methanol to quench the reaction. Quenched samples were then chilled at −20 °C for 2 h, centrifuged at 2000× g for 15 min, and the supernatants were transferred to microtiter plates for LC/MS-MS analysis.
# CYP2D6 = target: T4, CYP2D6 (Homo sapiens, UniProt P10635); assay: Automated time-dependent inhibition assay in HLM; format: in vitro ADME; details: EBO 30 and 50 µM, 30 min preincubation with NADPH
# T4 construct: Characterized, pooled, human hepatic microsomes from 15 individuals; tissue CellzDirect (Durham, NC, USA) or XenoTech LLC (Lenexa, KS, USA); host or cells: pooled human liver microsomes (15 donors)
# Protocol: as §3
# [4] = metabolism-dependent inhibition
# T1 sequence (P08183 whole entry): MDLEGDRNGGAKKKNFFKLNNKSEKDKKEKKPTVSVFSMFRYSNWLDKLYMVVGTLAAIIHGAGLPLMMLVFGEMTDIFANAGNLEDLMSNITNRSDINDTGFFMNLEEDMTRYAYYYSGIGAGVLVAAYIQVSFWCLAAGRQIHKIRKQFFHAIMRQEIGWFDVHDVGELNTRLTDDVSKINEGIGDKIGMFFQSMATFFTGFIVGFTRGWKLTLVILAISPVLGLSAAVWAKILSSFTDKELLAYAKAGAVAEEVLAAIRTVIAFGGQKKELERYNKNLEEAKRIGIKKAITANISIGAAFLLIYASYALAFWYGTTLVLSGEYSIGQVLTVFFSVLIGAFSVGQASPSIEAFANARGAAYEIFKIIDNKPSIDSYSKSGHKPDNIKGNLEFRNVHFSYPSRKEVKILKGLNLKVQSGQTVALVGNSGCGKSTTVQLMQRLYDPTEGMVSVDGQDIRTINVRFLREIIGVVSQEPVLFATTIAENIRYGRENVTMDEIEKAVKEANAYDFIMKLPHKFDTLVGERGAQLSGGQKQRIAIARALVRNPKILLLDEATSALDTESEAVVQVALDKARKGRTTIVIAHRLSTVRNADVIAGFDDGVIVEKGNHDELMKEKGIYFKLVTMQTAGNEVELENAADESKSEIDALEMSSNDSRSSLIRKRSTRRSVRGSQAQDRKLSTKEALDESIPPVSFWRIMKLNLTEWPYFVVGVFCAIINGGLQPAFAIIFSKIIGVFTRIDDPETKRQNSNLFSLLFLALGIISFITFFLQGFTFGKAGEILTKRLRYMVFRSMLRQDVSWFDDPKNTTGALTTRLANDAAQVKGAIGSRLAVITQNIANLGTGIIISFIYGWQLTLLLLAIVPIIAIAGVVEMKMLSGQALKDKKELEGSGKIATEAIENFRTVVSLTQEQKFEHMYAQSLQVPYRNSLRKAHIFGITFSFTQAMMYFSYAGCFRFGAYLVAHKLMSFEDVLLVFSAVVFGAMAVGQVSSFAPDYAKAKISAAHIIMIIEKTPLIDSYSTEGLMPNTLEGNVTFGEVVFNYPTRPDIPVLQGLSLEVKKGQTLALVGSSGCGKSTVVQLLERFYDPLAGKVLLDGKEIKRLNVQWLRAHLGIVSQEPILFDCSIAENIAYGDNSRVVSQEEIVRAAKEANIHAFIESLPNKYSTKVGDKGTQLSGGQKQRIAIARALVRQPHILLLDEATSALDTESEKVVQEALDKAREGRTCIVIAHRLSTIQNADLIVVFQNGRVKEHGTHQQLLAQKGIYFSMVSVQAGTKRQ
# T3 sequence (P05181 whole entry): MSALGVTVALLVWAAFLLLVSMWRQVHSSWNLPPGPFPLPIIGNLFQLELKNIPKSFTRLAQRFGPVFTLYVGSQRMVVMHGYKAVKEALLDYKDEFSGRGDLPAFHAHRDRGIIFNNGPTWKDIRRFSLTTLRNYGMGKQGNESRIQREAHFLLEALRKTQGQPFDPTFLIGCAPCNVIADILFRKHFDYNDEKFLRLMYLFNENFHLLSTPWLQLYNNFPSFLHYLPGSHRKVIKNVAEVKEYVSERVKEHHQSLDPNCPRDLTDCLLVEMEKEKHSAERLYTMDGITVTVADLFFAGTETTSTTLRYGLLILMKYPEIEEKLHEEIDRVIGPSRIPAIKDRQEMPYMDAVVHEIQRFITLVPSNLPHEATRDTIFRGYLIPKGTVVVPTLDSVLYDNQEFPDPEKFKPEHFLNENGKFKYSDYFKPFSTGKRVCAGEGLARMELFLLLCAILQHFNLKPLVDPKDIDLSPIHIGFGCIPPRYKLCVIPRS
# T2 sequence (P33261 whole entry): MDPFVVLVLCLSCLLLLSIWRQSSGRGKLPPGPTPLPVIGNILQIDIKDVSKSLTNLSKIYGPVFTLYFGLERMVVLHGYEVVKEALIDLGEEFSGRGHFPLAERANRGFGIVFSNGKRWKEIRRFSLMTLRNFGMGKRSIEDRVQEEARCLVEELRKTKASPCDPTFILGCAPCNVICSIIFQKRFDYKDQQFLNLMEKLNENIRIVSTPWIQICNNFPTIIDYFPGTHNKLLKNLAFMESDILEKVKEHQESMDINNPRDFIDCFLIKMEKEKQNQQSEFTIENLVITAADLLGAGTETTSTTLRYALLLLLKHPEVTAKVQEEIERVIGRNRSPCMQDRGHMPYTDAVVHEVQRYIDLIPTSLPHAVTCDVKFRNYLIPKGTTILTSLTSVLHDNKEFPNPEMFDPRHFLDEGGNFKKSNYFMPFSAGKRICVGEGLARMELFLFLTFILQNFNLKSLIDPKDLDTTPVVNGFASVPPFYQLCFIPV
# T4 sequence (P10635 whole entry): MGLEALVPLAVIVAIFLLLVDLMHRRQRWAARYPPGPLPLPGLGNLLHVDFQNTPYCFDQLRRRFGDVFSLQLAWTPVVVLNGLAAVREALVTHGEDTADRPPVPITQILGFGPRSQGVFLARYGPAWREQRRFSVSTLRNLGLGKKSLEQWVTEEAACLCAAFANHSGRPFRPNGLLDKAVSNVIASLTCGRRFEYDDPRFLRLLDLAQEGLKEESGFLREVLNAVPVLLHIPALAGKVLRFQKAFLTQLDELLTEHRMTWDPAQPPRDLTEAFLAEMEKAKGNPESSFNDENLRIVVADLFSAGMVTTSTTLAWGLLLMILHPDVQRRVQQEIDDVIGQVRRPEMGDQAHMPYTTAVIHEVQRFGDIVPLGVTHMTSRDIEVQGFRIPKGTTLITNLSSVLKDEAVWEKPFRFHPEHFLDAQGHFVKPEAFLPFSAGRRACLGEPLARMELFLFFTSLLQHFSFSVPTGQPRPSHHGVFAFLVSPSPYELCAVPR
compound,measurement,setting,value
"NC[C@H]1OB(O)c2c(OCCCO)cccc21 [EBO, Epetraborole]",Papp A→B,[1],≤ 3.1 nm/s
same,Papp B→A,[1],≤ 3.5 nm/s
same,Permeability (in words),Caco-2 cell monolayers,low permeability
same,P-gp substrate,"P-gp [2]; Caco-2, efflux ratio without/with P-gp inhibitor",not a P-gp substrate
same,efflux ratio,"P-gp [2]; vehicle (no P-gp inhibitor), listed as 14C-EBO",<2
same,efflux ratio,"P-gp [2]; human, with cyclosporine A (10 µM), Cyclosporine A (10 µM), read-out: Efflux Ratio",< 2
same,efflux ratio,"P-gp [2]; human, with verapamil (100 µM), Verapmil (100 µM), read-out: Efflux Ratio",< 2
same,efflux ratio,"P-gp [2]; human, vehicle (no P-gp inhibitor), read-out: Efflux Ratio",< 2
same,MDI IC50 Fold Change,CYP2C19; [4],No
same,pIC50,CYP2C19; read-out: as an Inhibitor IC50,< 4.00
same,pIC50,"CYP2B6; human, human liver microsomes, pH 7.4, probe bupropion, read-out: as an Inhibitor IC50",< 4.00
same,MDI IC50 Fold Change,CYP2B6; [4],No
same,MDI IC50 Fold Change,CYP2E1; [4],No
same,pIC50,CYP2E1; read-out: as an Inhibitor IC50,< 4.00
same,Substrate for major CYP enzymes (stability studies),major CYP enzymes,poor substrate
same,pIC50,P-gp [3],2.25
same,[Igut]/IC50,"P-gp [3]; human, pH 7.4",≤ 3
same,inhibition at 17000 µM,"P-gp [3]; human, pH 7.4",> 50%
same,Time-dependent inhibition,CYP3A4,No time-dependent inhibition
same,Time-dependent inhibition,CYP2D6,No time-dependent inhibition
